Measurements as given in US6960429B2, “Inhibition of viral gene activities” (priority 1997, dated 2005).
Read-outs that look alike come from different tables or passages of the source.

Legend:
[1] = system: DNA with two EBNA1-binding sites; assay: Gel shift assay: binding of the peptides to DNA in the absence of NΔ360; details: for Concentration reducing linking to 50% as percentage of concentration required to bind 50% of the DNA: 6.5 nM dimers of NΔ360, DNA binding in absence of NΔ360; for Difference between Ki and concentration which bound 50% of the DNA: linking by NΔ360 vs DNA binding by peptide alone
Text: (§1) Two DNAs used as probes in this study were generated by endonuclease digestion of cloned DNAs. That with two EBNA1-binding sites is the 131 bp, SalI to PstI fragment derived from p880 (30); and that with five GAL4-binding sites is the 109 bp, HinDIII to XbaI fragment derived from G5BCAT (31). DNA fragments were purified from agarose gels. […] This method distinguishes less than two-fold differences in DNA concentrations. These DNAs were labeled with the Klenow fragment of DNA Polymerase 1 in the presence of dATP, dGTP, dTTP, and ^32P α-dCTP (Amersham), and precipitated three times to remove unincorporated label (32).
(§2) Gel shift assays were done as previously described (28). All reactions contained 20 mM N-2-hydroxyethylpiperazine-N′-2-ethanesulfonic acid (HEPES; pH 7.6), 2 mM EDTA, 10% glycerol, 0.1% Nonidet P-40, and 0.3 M NaCl. Proteins were mixed in volume of 15 μl. The labeled DNA and 3 μg of poly(dI)•poly(dC) (Pharmacia) in 8 μl were added with mixing. The reactions were then incubated 30-45 minutes at room temperature. Reactions were separated by electrophoresis at 15-25 mA through a 4% polyacrylamide gel in 0.5×TBE (45 mM Tris-borate and 1 mM EDTA). Gels were dried on 3MM chromatography paper (Whatman) at 80° C. for 1 hour and then exposed to phosphorimager screens. The percentage of DNA linked is determined by dividing the amount of linked DNA by the total amount of DNA in the lane.
(§3) FIG. 3A: 20 fmols of a DNA with two EBNA1-binding sites were combined with the indicated concentrations of dimers of NΔ360 and A.A. 331-391 prior to separation by electrophoresis through a 4% polyacrylamide gel. […] The positions of linked DNA, unbound DNA, and DNA with one and two sites occupied by NΔ360 (1 and 2, respectively) are indicated. […] The percentage bound is the fraction of the total DNA in the lane which is shifted above the bracket for unbound DNA. […] The standard deviations are from three separate experiments.

[2] = biological target: T1, NΔ360 (derivative of EBNA1) (Epstein-Barr virus, UniProt P03211); format: biochemical; details: for Ki: 6.5 nM dimers of NΔ360, 20 fmols DNA with two EBNA1-binding sites, Ki = concentration of competitor which inhibits linking to 50%, read-out: Ki against NΔ360
T1 construct: NΔ360 and NΔ389 have a methionine followed by amino acids 361 and 390 to the carboxy-terminus, respectively; added initiator methionine (N); made in house; host or cells: E. coli
Text: as §1
(§4) The derivatives of EBNA1 (bEBNA1, NΔ360, NΔ389) and the GAL4 derivatives (GAL4(1-94), GAL4(1-94)&54-89, GAL4(1-94)&331-361, GAL4(1-94)&372-391) used in this study were all produced and purified as previously described (28). Briefly, bEBNA1 lacks amino acids 2 through 7 and all but fifteen amino acids of the gly-gly-ala repeats and was expressed in SF21 cells (23). NΔ360 and NΔ389 lack the first 360 and 389 amino acids, respectively, and were expressed in E. coli. GAL4(1-94) contains amino acids 1 to 94 of the yeast transactivator GAL4 plus eight carboxy-terminal amino acids coded by the poly-cloning region. The fusions designated GAL4(1-94)&#—# contain the indicated residues from EBNA1 cloned in frame into the poly-cloning region. All derivatives and fragments of EBNA1 were derived from the B95-8 viral strain (33, 15).
(§5) A.A. 40-89 and A.A. 331-391 were generated by amplifying the fragment of EBNA1 encoding those amino acids with PCR primers containing SalI and XbaI sites at the 5′ ends. […] The sequence of both clones was verified using an ABI Prism automated sequencer (Applied BioSystems). Expression of the fusion proteins in BL21 bacteria containing a DE3 lysogen and carrying pLysS was done as previously described (28). Purification using Ni^2+-NTA agarose (Qiagen) followed standard protocols (The QIAexpressionist, Qiagen). Following elution of A.A. 40-89 and A.A. 331-391 in 500 and 150 mM imidazole, respectively, the peptides were dialyzed into a buffer containing 50 mM Tris (pH 7.5), 2.5 mM EDTA, and 0.3 M NaCl.
as §2, §3

[3] = biological target: bEBNA1 (derivative of EBNA1); format: biochemical, Epstein-Barr virus; details: for Ki: 6.5 nM dimers of bEBNA1, 20 fmols DNA with two EBNA1-binding sites, Ki = concentration of competitor which inhibits linking to 50%, read-out: Ki against bEBNA1; for Ki for linking by bEBNA1 relative to linking by NΔ360: DNA with two EBNA1-binding sites; for Effectiveness of competition with linking by bEBNA1 relative to linking by NΔ360: DNA with two binding sites
Method: (§6) Two DNAs used as probes in this study were generated by endonuclease digestion of cloned DNAs. That with two EBNA1-binding sites is the 131 bp, SalI to PstI fragment derived from p880 (30); and that with five GAL4-binding sites is the 109 bp, HinDIII to XbaI fragment derived from G5BCAT (31). DNA fragments were purified from agarose gels. They were quantified by making serial dilutions in the presence of ethidium bromide (0.5 μg/mL) and comparing their intensities, when exposed to ultraviolet light, to that of similar dilutions of a standard DNA. This method distinguishes less than two-fold differences in DNA concentrations. These DNAs were labeled with the Klenow fragment of DNA Polymerase 1 in the presence of dATP, dGTP, dTTP, and ^32P α-dCTP (Amersham), and precipitated three times to remove unincorporated label (32).
as §4, §5, §2

GAL4(1-94)&54-89 = biological target: T2, GAL4(1-94)&54-89 (Epstein-Barr virus, UniProt P03211); assay: Gel shift assay: inhibition of DNA-linking by GAL4(1-94)&54-89; format: biochemical; details: 2.5-fold molar excess of competitor; DNA with five GAL4-binding sites (FIG. 2A)
T2 construct: made in house
Method: as §6, with “(32). […]” for “(32).”
Gel shift assays were done as previously described (28). […] The percentage of DNA linked is determined by dividing the amount of linked DNA by the total amount of DNA in the lane.
The ability of GAL4(1-94)&54-89 (FIG. 1) to link DNAs containing five GAL4-binding sites was tested in the absence of any competitor and in the presence of a 2.5-fold molar excess of three derivatives of EBNA1 (FIG. 1). […] For both FIGS. 2A and B the reactions were manipulated and analyzed to determine the percentage of maximum DNA linked as in FIG. 3. […]

[4] = DNA with two EBNA1-binding sites, read-out: Concentration for 50% inhibition of linking by NΔ360
[5] = linking by NΔ360, DNA with two binding sites

Substance | Concentration reducing linking to 50% as percentage of concentration required to bind 50% of the DNA [1] [%] | Difference between Ki and concentration which bound 50% of the DNA [1] [fold] | Ki [2] [nM] | IC50 [2, 4] [nM] | Ki [3] [nM] | Ki for linking by bEBNA1 relative to linking by NΔ360 [3] [fold] | Effectiveness of competition with linking by bEBNA1 relative to linking by NΔ360 [3] | other results
A.A. 40-89: EBNA1 amino acids 40-89 fused to an amino-terminal epitope (T7 Tag) and 6 carboxy-terminal histidines, expressed in bacteria | 1 | 100 | 55 | 55 | 7600 | 140 | approximately 1% | 
A.A. 331-391: EBNA1 amino acids 331-391 fused to an amino-terminal epitope (T7 Tag) and 6 carboxy-terminal histidines, expressed in bacteria | 2 | 50 | 30 | 30 | 3300 | 110 | approximately 1% | Excess of competitor relative to NΔ360 that halves the percentage of DNA linked ([2]; DNA with two EBNA1-binding sites): 5 fold; Effectiveness of competition for linking of the ten binding site DNA relative to the two binding site DNA ([2]; linking by NΔ360, data not shown): approximately 0.3%
GAL4(1-94): Amino acids 1 to 94 of the yeast transactivator GAL4 plus eight carboxy-terminal amino acids coded by the poly-cloning region [reference compound] |  |  |  |  |  |  |  | Inhibition of linking by NΔ360 ([2]; 4.5-fold molar excess of GAL4-derivative, DNA with two EBNA1-binding sites (FIG. 2B)): did not inhibit linking
NΔ360: EBNA1 derivative lacking the first 360 amino acids, expressed in E. coli |  |  |  |  |  |  |  | Inhibition of linking by GAL4(1-94)&54-89 (GAL4(1-94)&54-89): inhibited linking
Poly-Lysine [reference compound] |  |  | 1900 |  | 11000 | 6 |  | IC50 ([2]; DNAs with two EBNA1-binding sites, read-out: Concentration inhibiting linking by NΔ360 to 50%): 1900 nM; Ki of polyK relative to Ki of A.A. 40-89 [2, 5]: 35 fold; Ki of polyK relative to Ki of A.A. 331-391 [2, 5]: 60 fold
